Literature values in patent US20250120913A1, “STABLE QUERCETIN NANOSUSPENSIONS” (Sirona Biosciences Inc., priority 2023, published 2025).

Settings: depending on the pH level

O=c1c(O)c(-c2ccc(O)c(O)c2)oc2cc(O)cc(O)c12 [Quercetin]
aqueous solubility: 1.5 to 12.5 µg/mL
